Reference: patent US6916798B2, “Inhibitors of GSK-3 and uses thereof” (Vertex Pharmaceuticals Incorporated, priority 2001, dated 2005)
Where two headings read alike, the source gives them in different places.

Legend:
Format in all cases: biochemical
[1] = molecular target: T1, GSK-3β (AA 1-420) (Homo sapiens, UniProt P49841); assay: Ki determination for the inhibition of GSK-3, standard coupled enzyme system
T1 construct: GSK-3β (AA 1-420)
Procedure: Final substrate concentrations in the assay were 20 μM ATP (Sigma Chemicals, St Louis, Mo.) and 300 μM peptide (HSSPHQS(PO3H2)EDEEE, American Peptide, Sunnyvale, Calif.). Reactions were carried out at 30° C. and 20 nM GSK-3β. Final concentrations of the components of the coupled enzyme system were 2.5 mM phosphoenolpyruvate, 300 μM NADH, 30 μg/ml pyruvate kinase and 10 μg/ml lactate dehydrogenase.
An assay stock buffer solution was prepared containing all of the reagents listed above with the exception of ATP and the test compound of interest. The assay stock buffer solution (175 μl) was incubated in a 96 well plate with 5 μl of the test compound of interest at final concentrations spanning 0.002 μM to 30 μM at 30 ° C. for 10 min. […] The reaction was initiated by the addition of 20 μl of ATP (final concentration 20 μM). Rates of reaction were obtained using a Molecular Devices Spectramax plate reader (Sunnyvale, Calif.) over 10 min at 30° C. The Ki values were determined from the rate data as a function of inhibitor concentration.

[2] = molecular target: T2, Aurora-2 (Homo sapiens, UniProt O14965); assay: Ki determination for the inhibition of Aurora-2, standard coupled enzyme assay; settings: 70 nM Aurora-2, 800 μM peptide LRRASLG, 30° C.
T2 sequence (O14965 1-403): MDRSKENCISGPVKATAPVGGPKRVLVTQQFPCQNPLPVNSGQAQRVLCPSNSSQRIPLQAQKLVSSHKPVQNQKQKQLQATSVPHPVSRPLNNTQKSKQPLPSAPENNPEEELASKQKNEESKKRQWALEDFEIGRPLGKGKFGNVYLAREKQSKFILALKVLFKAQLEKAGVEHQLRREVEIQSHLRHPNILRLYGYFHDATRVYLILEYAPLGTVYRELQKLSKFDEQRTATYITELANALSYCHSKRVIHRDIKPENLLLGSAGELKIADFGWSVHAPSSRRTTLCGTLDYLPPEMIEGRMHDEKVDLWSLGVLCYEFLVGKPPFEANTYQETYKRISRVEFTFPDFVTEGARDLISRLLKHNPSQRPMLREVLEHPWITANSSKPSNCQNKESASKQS
Procedure: Compounds were screened in the following manner for their ability to inhibit Aurora-2 using a standard coupled enzyme assay (Fox et al. (1998) Protein Sci. 7, 2249).
(§1) To an assay stock buffer solution containing 0.1M HEPES 7.5, 10 mM MgCl2, 1 mM DTT, 25 mM NaCl, 2.5 mM phosphoenolpyruvate, […], 30 mg/ml pyruvate kinase, 10 mg/ml lactate dehydrogenase, 40 mM ATP, and 800 μM peptide (LRRASLG, American Peptide, Sunnyvale, Calif.) was added a DMSO solution of a compound of the present invention to a final concentration of 30 μM. The resulting mixture was incubated at 30° C. for 10 min. The reaction was initiated by the addition of 10 μL of Aurora-2 stock solution to give a final concentration of 70 nM in the assay. The rates of reaction were obtained by monitoring absorbance at 340 nm over a 5 minute read time at 30° C. using a BioRad Ultramark plate reader (Hercules, Calif.). The Ki values were determined from the rate data as a function of inhibitor concentration.

[3] = molecular target: CDK-2/Cyclin A (Homo sapiens, UniProt P24941); assay: Inhibition of CDK-2, standard coupled enzyme assay; settings: 25 nM CDK-2/Cyclin A, 100 μM peptide, 30° C.
Procedure: Compounds were screened in the following manner for their ability to inhibit CDK-2 using a standard coupled enzyme assay (Fox et al (1998) Protein Sci 7, 2249).
as §1, with “[…], […]” for “dehydrogenase, 40”, “and 100” for “and 800”, “peptide ([…],” for “peptide (LRRASLG,”, “of CDK-2/Cyclin A” for “of Aurora-2”, “of 25” for “of 70”, “a 5-minute” for “a 5 minute”

[4] = 20 μM ATP, 300 μM peptide, 20 nM GSK-3β, 30° C., read-out: Ki values for GSK-3

T1 sequence (P49841 whole entry, the tested form may be a part): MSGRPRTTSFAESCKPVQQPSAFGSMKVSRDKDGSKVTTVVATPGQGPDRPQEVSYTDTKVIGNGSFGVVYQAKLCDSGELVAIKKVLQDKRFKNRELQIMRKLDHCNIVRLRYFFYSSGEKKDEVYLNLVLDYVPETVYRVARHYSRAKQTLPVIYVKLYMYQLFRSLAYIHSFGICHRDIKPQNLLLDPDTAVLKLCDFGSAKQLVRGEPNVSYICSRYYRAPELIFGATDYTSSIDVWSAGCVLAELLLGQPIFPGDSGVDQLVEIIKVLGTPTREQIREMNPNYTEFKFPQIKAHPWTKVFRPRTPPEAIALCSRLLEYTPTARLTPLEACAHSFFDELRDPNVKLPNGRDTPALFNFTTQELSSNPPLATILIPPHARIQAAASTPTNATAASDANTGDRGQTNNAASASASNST

Row | Compound | Ki [1, 4] | Ki [2] | Ki [3] | Ki [1]
1 | COc1cccc(N/N=C2\C(=O)NN=C2c2ccc(OC)c(OC)c2)c1 [Compound 73] | < 100 nM | < 100 nM |  | 
2 | COc1ccc(C2=NNC(=O)C2=NNc2ccc(OCCCN(C)CCO)c(-c3ccccc3)c2)cc1OC [Compound 120, 5-(3,4-dimethoxy-phenyl)-4-[(6-{3-[(2-hydroxy-ethyl)-methyl-amino]-propoxy}-biphenyl-3-yl)-hydrazono]-2,4-dihydro-pyrazol-3-one] | < 100 nM |  | 1000 to 20000 nM | 
3 | COc1ccc(C2=NNC(=O)C2=NNc2ccc(OCCCN(C)C)c(-c3ccccc3)c2)cc1OC [Compound 121, 5-(3,4-Dimethoxy-phenyl)-4-{[6-(3-dimethylamino-propoxy)-biphenyl-3-yl]-hydrazono}-2,4-dihydro-pyrazol-3-one] | < 100 nM |  | 1000 to 20000 nM | 
4 | COc1ccc(C2=NNC(=O)/C2=N\Nc2ccc(C#N)cc2)cc1OC [Compound 58] | < 100 nM | 100 to 1000 nM |  | 
5 | COc1cc(C2=NNC(=O)C2=NNc2ccc(Cl)cc2)cc(OC)c1OC [Compound 23] | < 100 nM | < 100 nM |  | 
6 | COc1ccc(C2=NNC(=O)/C2=N\Nc2ccc(N3CCOCC3)cc2)cc1 [Compound 60] | < 100 nM | 100 to 1000 nM |  | 
7 | CCN(CCO)c1ccc(NN=C2C(=O)NN=C2c2cc(OC)c(OC)c(OC)c2)cc1 [Compound 223] | < 100 nM | < 100 nM |  | 
8 | CCOc1ccc(C2=NNC(=O)C2=NNc2ccc(N(CC)CCO)cc2)cc1OCC [Compound 115, 5-(3,4-Diethoxy-phenyl)-4-({4-[ethyl-(2-hydroxy-ethyl)-amino]-phenyl}-hydrazono)-2,4-dihydro-pyrazol-3-one] |  | < 100 nM | 1000 to 20000 nM | 
9 | COc1ccc(C2=NNC(=O)C2=CNc2ccc3c(c2)N(C(C)=O)CC3)cc1 [Compound 97] | < 100 nM |  | 1000 to 20000 nM | 
10 | COc1ccc(C2=NNC(=O)C2=CNc2ccc(Oc3ccccc3)cc2)cc1 [Compound 91] | 100 to 1000 nM |  | 1000 to 20000 nM | 
11 | COc1ccc(C2=NNC(=O)C2=CNc2cccc(C(=O)c3ccccc3)c2)cc1 [Compound 93] | 100 to 1000 nM |  | 1000 to 20000 nM | 
12 | COc1ccc(C2=NNC(=O)C2=CNc2cccc(OCc3ccccc3)c2)cc1OC [Compound 92, 4-[(3-Benzyloxy-phenylamino)-methylene]-5-(3,4-dimethoxy-phenyl)-2,4-dihydro-pyrazol-3-one] | 100 to 1000 nM |  | 1000 to 20000 nM | 
13 | CCN(CC)c1ccc(N/N=C2\C(=O)NN=C2c2ccc(OC)c(OC)c2)cc1 [Compound 37] | < 100 nM | < 100 nM |  | 
14 | COc1ccc(C2=NNC(=O)/C2=N\Nc2ccc(N3CCOCC3)cc2)cc1OC [Compound 61] | < 100 nM | < 100 nM |  | 
15 | COc1ccc(C2=NNC(=O)/C2=N\Nc2cccc(Cl)c2)cc1OC [Compound 70] | < 100 nM | 100 to 1000 nM |  | 
16 | COc1ccc(C2=NNC(=O)C2=CNc2cccc(S(N)(=O)=O)c2)cc1OC [Compound 95, 3-{[3-(3,4-Dimethoxy-phenyl)-5-oxo-1,5-dihydro-pyrazol-4-ylidenemethyl]-amino}-benzenesulfonamide] | 100 to 1000 nM |  | 1000 to 20000 nM | 
17 | COc1cccc(C2=NNC(=O)/C2=N\Nc2ccc(N3CCOCC3)cc2)c1 [Compound 62] | < 100 nM | 100 to 1000 nM |  | 
18 | COc1ccc(N/N=C2\C(=O)NN=C2c2cc(OC)c(OC)c(OC)c2)cc1 [Compound 22] | < 100 nM | < 100 nM |  | 
19 | COc1ccc(C2=NNC(=O)C2=CNc2ccc3c(c2)NCC3)cc1 [Compound 96] | 100 to 1000 nM |  | 1000 to 20000 nM | 
20 | O=C1NN=C(c2ccccc2F)C1=NNc1ccc(Cl)cc1 [Compound 27] | 100 to 1000 nM |  |  | 
21 | O=C1NN=C(c2ccc(N3CCOCC3)cc2)C1=NNc1ccc2c(c1)C(=O)c1ccccc1-2 [Compound 208] | < 100 nM |  |  | 
22 | COc1ccc(C2=NNC(=O)C2=CNc2ccc(OC)c(O)c2)cc1 [Compound 98] | < 100 nM |  | 100 to 1000 nM | 

Row | Compound | Ki [1, 4] | Ki [2] | Ki [3] | Ki [1]
23 | COc1cccc(C2=NNC(=O)C2=NNc2ccc(Oc3ccccc3)cc2)c1 [Compound 87] | < 100 nM |  |  | 
24 | COc1ccc(N/N=C2\C(=O)NN=C2c2cccnc2)cc1 [Compound 20] |  |  |  | < 100 nM
25 | COc1ccc(NN=C2C(=O)NN=C2c2ccccc2F)cc1 [Compound 33] | 100 to 1000 nM |  |  | 
26 | COc1ccc(C2=NNC(=O)C2=NNc2cccc(Oc3ccccc3)c2)cc1OC [Compound 89] | < 100 nM |  |  | 
27 | O=C1NN=C(c2ccccc2)/C1=N/Nc1ccc(Cl)cc1 [Compound 25] | < 100 nM |  |  | 
28 | COc1cc(OC)c(NN=C2C(=O)NN=C2c2ccc(OC)c(OC)c2)c(OC)c1 [Compound 112, 5-(3,4-Dimethoxy-phenyl)-4-[(2,4,6-trimethoxy-phenyl)-hydrazono]-2,4-dihydro-pyrazol-3-one] | 100 to 1000 nM |  |  | 
29 | CCn1c2ccccc2c2cc(NN=C3C(=O)NN=C3c3ccc(OC)c(OC)c3)ccc21 [Compound 218] | < 100 nM |  |  | 
30 | COc1ccc(C2=NNC(=O)C2=NNc2ccc(-c3ccc(F)cc3)cc2)cc1OC [Compound 83] | < 100 nM |  |  | 
31 | COc1ccc(C2=NNC(=O)/C2=N\Nc2ccc(Cl)cc2)cc1 [Compound 43] | < 100 nM | 100 to 1000 nM |  | 
32 | CCN(CC)c1ccc(N/N=C2\C(=O)NN=C2c2ccc(OC)cc2)cc1 [Compound 36] | < 100 nM |  |  | 
33 | O=C1NN=C(c2cccnc2)C1=NNc1ccc(Cl)cc1 [Compound 18] | < 100 nM |  |  | 
34 | COc1ccc(C2=NNC(=O)C2=NNc2ccc(OC)c(N3CCN(C)CC3)c2)cc1OC [Compound 125, 5-(3,4-Dimethoxy-phenyl)-4-{[4-methoxy-3-(4-methyl-piperazin-1-yl)-phenyl]-hydrazono}-2,4-dihydro-pyrazol-3-one] | < 100 nM |  |  | 
35 | COc1ccc(C2=NNC(=O)C2=NNc2cccc(OC)c2)cc1 [Compound 72] | < 100 nM |  |  | 
36 | COc1ccc(C2=NNC(=O)C2=NNc2cccc(-c3ccccc3)c2)cc1OC [Compound 204] | < 100 nM |  |  | 
37 | COc1ccc(C2=NNC(=O)C2=NNc2ccc(Oc3ccccc3)cc2)cc1OC [Compound 86] | < 100 nM | < 100 nM |  | 
38 | COc1ccc(C2=NNC(=O)/C2=N\Nc2ccc(N(C)C)cc2)cc1OC [Compound 52] | < 100 nM | < 100 nM |  | 
39 | COc1ccc(C2=NNC(=O)C2=NNc2ccc(-c3ccccc3)cc2)cc1OC [Compound 80] | < 100 nM |  |  | 
40 | O=C1NN=C(c2ccccn2)C1=NNc1ccc(Cl)cc1 [Compound 17] | 100 to 1000 nM |  |  | 
41 | COc1ccc(C2=NNC(=O)C2=NNc2ccc([N+](=O)[O-])cc2)cc1 [Compound 77] | < 100 nM |  |  | 
42 | COc1ccc(C2=NNC(=O)C2=NNc2ccc(OC)c(-c3cccnc3)c2)cc1OC [Compound 106, 5-(3,4-Dimethoxy-phenyl)-4-[(4-methoxy-3-pyridin-3-yl-phenyl)-hydrazono]-2,4-dihydro-pyrazol-3-one] | < 100 nM |  | 1000 to 20000 nM | 
43 | COc1ccc(N/N=C2\C(=O)NN=C2c2ccc(OC)c(OC)c2)cc1 [Compound 47] | < 100 nM | < 100 nM |  | 
